Experimental data: US12527739B2 (Alcon Inc., priority 2022, dated 2026)

Legend:
[1] = HPβCD as a solubilizer for benzyl atropine; type: physicochemical; conditions: pH 3.1
[2] = Concentration of benzyl atropine in freshly prepared simplified formulations; type: physicochemical
Source text: Considerable efforts were made to simplify the formulation to reduce the overall amount of surfactants (Table 11).
The combination of two different species of surfactant was unexpected. […] The efficacy of this “double-buffered” vehicle was unexpected.

[3] = Concentration of benzyl atropine in surfactant mixtures; type: physicochemical
[4] = test system: form deprivation-induced myopia (FDM); test: Form deprivation-induced myopia (FDM) chick model; type: in vivo
[5] = Solubilizing mixtures with citrate and acetate buffers; conditions: for Actual Conc. / Final pH: 7.0% PEG-40 Stearate, 5.0% PEG-35 Castor Oil
[6] = Solubility of benzyl atropine in surfactants (single excipients); type: physicochemical
Description: Initially, single excipients were evaluated (Table 8).

[7] = pH adjustment of methyl atropine and benzyl atropine solutions, HPLC analysis; type: physicochemical; conditions: for Actual concentration (HPLC) / pH after incubation (24 hours): after pH adjustment; for Initial pH: before pH adjustment
[8] = Solubility screen in two simple vehicles, pH 7.4; conditions: for pH of the formulation / Actual Concentration: pH 7.4; for Actual Concentration: 5 min vortexing
M4 muscarinic receptor = molecular target: T1, M4 muscarinic receptor (Homo sapiens, UniProt P08173); test: Muscarinic receptor radioligand displacement binding, M4
T1 sequence (P08173 1-479): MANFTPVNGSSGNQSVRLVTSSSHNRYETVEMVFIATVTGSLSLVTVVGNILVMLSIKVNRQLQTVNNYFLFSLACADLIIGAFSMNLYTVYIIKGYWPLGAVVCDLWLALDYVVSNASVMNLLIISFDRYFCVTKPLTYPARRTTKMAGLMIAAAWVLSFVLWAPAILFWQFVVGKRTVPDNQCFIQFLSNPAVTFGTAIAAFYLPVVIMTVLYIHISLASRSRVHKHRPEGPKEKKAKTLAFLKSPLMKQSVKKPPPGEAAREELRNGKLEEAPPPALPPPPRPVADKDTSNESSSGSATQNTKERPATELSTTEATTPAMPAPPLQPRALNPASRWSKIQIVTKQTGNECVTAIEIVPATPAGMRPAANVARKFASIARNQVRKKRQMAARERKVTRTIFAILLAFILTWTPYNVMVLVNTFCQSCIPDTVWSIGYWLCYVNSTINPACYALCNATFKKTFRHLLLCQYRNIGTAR

M1 muscarinic receptor = molecular target: T2, M1 muscarinic receptor (Homo sapiens, UniProt P11229); test: Muscarinic receptor radioligand displacement binding, M1
T2 sequence (P11229 1-460): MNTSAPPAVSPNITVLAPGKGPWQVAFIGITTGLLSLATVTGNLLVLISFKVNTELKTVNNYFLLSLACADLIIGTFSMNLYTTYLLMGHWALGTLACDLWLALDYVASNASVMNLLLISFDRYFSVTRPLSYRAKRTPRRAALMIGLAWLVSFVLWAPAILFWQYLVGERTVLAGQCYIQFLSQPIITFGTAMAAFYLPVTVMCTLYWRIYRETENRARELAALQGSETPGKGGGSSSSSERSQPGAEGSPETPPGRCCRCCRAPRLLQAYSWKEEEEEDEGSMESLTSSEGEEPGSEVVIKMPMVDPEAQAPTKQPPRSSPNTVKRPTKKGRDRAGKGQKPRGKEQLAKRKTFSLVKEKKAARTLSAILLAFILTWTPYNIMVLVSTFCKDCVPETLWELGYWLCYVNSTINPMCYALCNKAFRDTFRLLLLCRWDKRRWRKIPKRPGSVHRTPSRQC

[9] = 0.43% Sodium Chloride, 10.0% HPβCD in 20 mM Phosphate Buffer
[10] = 2.21% Mannitol, 10.0% HPβCD in 20 mM Phosphate Buffer
[11] = 2.5% HPβCD in 20 mM Phosphate Buffer
[12] = 5.0% HPβCD in 20 mM Phosphate Buffer
[13] = 10.0% HPβCD in 20 mM Phosphate Buffer
[14] = 0.78% Sodium Chloride in 30 mM Acetate Buffer, pH 4.55
[15] = 3.5% PEG-400, 0.46% Sodium Chloride in 30 mM Acetate Buffer, pH 4.62
[16] = 3.5% PEG-400, 5.0% PEG-35 Castor Oil, 0.37% Sodium Chloride in 30 mM Acetate Buffer, pH 4.67
[17] = 5.0% PEG-35 Castor Oil, 0.81% Sodium Chloride in 30 mM Acetate Buffer, pH 4.57
[18] = 7.0% PEG-40 Stearate, 0.58% Sodium Chloride in 30 mM Acetate Buffer, pH 4.64
[19] = 7.0% PEG-40 Stearate, 0.65% Sodium Chloride in 5 mM Phosphate Buffer/30 mM Acetate Buffer
[20] = 0.3% Tyloxapol in Phosphate Buffer, pH 2.8
[21] = 2.0% Poloxamer 407 in Phosphate Buffer, pH 2.8
[22] = 4.0% Tween 80 in Phosphate Buffer, pH 2.9
[23] = 5.0% PEG-35 Castor Oil in Acetic Acid Buffer, pH 2.8
[24] = 5.0% PEG-35 Castor Oil in Phosphate Buffer, pH 2.8
[25] = 7.0% PEG0-40 Stearate in Phosphate Buffer, pH 3.0
[26] = 20% DMSO in Phosphate Buffer, pH 2.7
[27] = 50% Glycerol in Phosphate Buffer in Phosphate Buffer, pH 2.5
[28] = 50% Propylene Glycol in Phosphate Buffer, pH 2.9
[29] = 20 mM Citrate Buffer, pH 3.0 before API, 5.0% PEG-400
[30] = 20 mM Citrate Buffer, pH 4.65 before API, 5.0% PEG-400
[31] = 30 mM Acetate Buffer, pH 4.38 before API, 3.5% PEG-400
[32] = 30 mM Acetate Buffer, pH 4.56 before API, 3.5% PEG-400
[33] = 30 mM Acetate Buffer, pH 5.11 before API, 5.0% PEG-400

## CN1C2CCC1CC(OC(=O)C(CO)(Cc1ccccc1)c1ccccc1)C2 (racemic) [Benzyl Atropine, benzyl atropine]
[1]; [9]
  Actual Concentration: 5.92 mg/g
  Final pH: 5.8
[1]; [10]
  Actual Concentration: 5.23 mg/g
  Final pH: 5.7
[1]; [11]
  Concentration Dissolved: 3.53 mg/g
  Final pH: 7.1
[1]; [12]
  Concentration Dissolved: 4.16 mg/g
  Final pH: 7.0
[1]; [13]
  Concentration Dissolved: 4.51 mg/g
  Final pH: 7.1
[2]; [14]
  Actual Concentration: 0.92 mg/g
  Final Osmolality: 263.5 mOsm/kg
  Final pH: 7.2
[2]; [15]
  Actual Concentration: 1.79 mg/g
  Final Osmolality: 287 mOsm/kg
  Final pH: 7.1
[2]; [16]
  Actual Concentration: 3.95 mg/g
  Final Osmolality: 293 mOsm/kg
  Final pH: 7.4
[2]; [17]
  Actual Concentration: 3.02 mg/g
  Final Osmolality: 306.5 mOsm/kg
  Final pH: 7.5
[2]; [18]
  Actual Concentration: 4.62 mg/g
  Final Osmolality: 264.5 mOsm/kg
  Final pH: 7.4
[2]; [19]
  Actual Concentration: 5.32 mg/g
  Final Osmolality: 291 mOsm/kg
  Final pH: 6.4
[2]; in the presence of 3.5% PEG-400, 5% PEG-35 castor oil, and 0.37% NaCl
  highest achievable concentration that did not re-precipitate: 3.9 mg/g
[3]; [20]
  Actual Concentration: 0.19 mg/g
  pH after API Dissolution: 7.3
[3]; [21]
  Actual Concentration: 0.20 mg/g
  pH after API Dissolution: 7.4
[3]; [22]
  Actual Concentration: 0.58 mg/g
  pH after API Dissolution: 7.3
[3]; [23]
  Actual Concentration: 1.16 mg/g
  pH after API Dissolution: 3.1
[3]; [24]
  Actual Concentration: 0.68 mg/g
  pH after API Dissolution: 7.3
[3]; [25]
  Actual Concentration: 0.47 mg/g
  pH after API Dissolution: 7.4
[3]; [26]
  Actual Concentration: 0.30 mg/g
  pH after API Dissolution: 8.1
[3]; [27]
  Actual Concentration: 0.84 mg/g
  pH after API Dissolution: 7.6
[3]; [28]
  Actual Concentration: 1.56 mg/g
  pH after API Dissolution: 8.3
[4]; at approximately ten-fold lower concentration than atropine, FIG. 1 Panel B (24 nmol vs 240 nmol)
  efficacy compared with atropine in FDM chick model: as effective as atropine
[4]; intravitreal injection day 2 and day 4, readout day 5, FIG. 1 Panel A
  efficacy in FDM chick model: effective
[4]; with respect to 5% v/v ethanol solution, FIG. 1 Panel A
  change in refractive error (goggled eye value minus ungoggled eye value): significantly decreased
[5]; [29]
  Actual Conc.: 5.73 mg/g
  Final pH: 4.4
[5]; [30]
  Actual Conc.: 2.38 mg/g
  Final pH: 5.8
[5]; [31]
  Actual Conc.: 5.49 mg/g
  Final pH: 4.9
[5]; [32]
  Actual Conc.: 5.42 mg/g
  Final pH: 5.5
[5]; [33]
  Actual Conc.: 3.59 mg/g
  Final pH: 7.7
[5]; from stability assessment, compound crashed out of solution over storage
  saturated solubility limit: ~5 mg/g
[6]; 50% Propylene Glycol in 30 mM Phosphate Buffer, pH 7.4
  Actual Concentration: 1.85 mg/g
[6]; PEG-400 (neat)
  Actual Concentration: 8.01 mg/g
  drug solubility: 0.8%
[6]; Polypropylene Glycol (neat)
  Actual Concentration: 7.86 mg/g
[6]; Propylene Glycol (neat)
  Actual Concentration: 6.96 mg/g
[7]; 30 mM Phosphate Buffer, pH 7.4
  Actual concentration (HPLC): 0.05 mg/g
  pH after incubation (24 hours): 6.23
  Initial pH: 7.7
[7]; Phosphate Buffered Saline
  Actual concentration (HPLC): 0.04 mg/g
  pH after incubation (24 hours): 5.7
  Initial pH: 7.7
[7]; lowered pH of the vehicle
  dissolution upon pH adjustment (in words): did not fully dissolve
[8]; 30 mM Phosphate Buffer
  pH of the formulation: 7.9
  Actual Concentration: 0.29 mg/g
[8]; Phosphate Buffered Saline
  pH of the formulation: 8.0
  Actual Concentration: 0.30 mg/g
[8]; both vehicles: 30 mM phosphate buffer pH 7.4 and phosphate-buffered saline pH 7.4
  dissolution in vehicle (in words): did not entirely dissolve
M4 muscarinic receptor
  Ki: 600 nM
  binding to the receptor (in words): bind weakly
M1 muscarinic receptor
  Ki: 830 nM
  binding to the receptor (in words): bind weakly
